These results are taken from PubChem BioAssay (NCI).

Common to all, as to experiment: NCI tumour cell line growth inhibition, 48 h
Test [1] deals with OVCAR-3 ovarian.
In test [2] the test system is RPMI-8226 leukemia.
Test [3] deals with SK-OV-3 ovarian.
The subject of test [4] is UO-31 renal.
The subject of test [5] is RXF 393 renal.
Test [6] has as its system PC-3 prostate.
Test [7] relates to LOX IMVI melanoma.
Test [8] deals with HT29 colon.
Test [9] deals with NCI-H460 lung.
The test system of test [10] is BT-549 breast.

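Method: 48-hour compound exposure of cells in 96-well plates, five concentrations, linear interpolation of endpoints. TGI: concentration producing complete growth inhibition.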

Take `COc1cccc([C@@H]2CC(=O)c3cc4c(cc3N2)OCO4)c1`: the TGI in [1], in [2], in [3], in test [4], in [5] and in test [6] was > 100 µM throughout. Also, the TGI in test [7] was > 100 µM.

Take `NCCS(=O)(=O)O`: the TGI in test [8], in test [1], in test [2], in test [4], in test [6] and in [9] was > 100 µM each time. In addition, in [7], the TGI is > 100 µM.

As for `O=C(CSCC(=O)N/N=C\c1ccccc1F)N/N=C\c1ccccc1F`, the TGI in test [8], in test [1], in test [2], in test [3], in test [4] and in test [5] was > 100 µM throughout. Besides, the TGI in [9] and in test [7] was > 100 µM each time.

Regarding `O=C(c1ccccc1O)c1cc(-c2ncc3c(=O)c4ccccc4oc3n2)c(-c2ccccc2O)[nH]c1=O`, the TGI in test [8] is 77.6 µM; in test [1], 62.4 µM; in [2], 60.4 µM; in test [3] it was 85.2 µM; in test [4] it was > 79.7 µM; in [5] it was 93.4 µM. Moreover, the values for the TGI in test [9] and in test [7] were 60.9 µM and 39.1 µM, respectively.

For `Cc1ccc(C#CS(=O)(=O)C(F)(F)F)cc1`, the TGI in test [8], in [1], in [2], in test [3], in test [4] and in test [5] was > 100 µM in each case. For the same molecule, the figures for the TGI in [9] and in test [7] were > 100 µM and > 31.6 µM, respectively.

Regarding `O=C(NNS(=O)(=O)c1ccccc1)c1csc(NC(=S)NC2CCCCC2)n1`, the TGI in test [8] was > 100 µM; in [1], 34.4 µM; in test [2], > 100 µM; in test [3], > 100 µM; in test [4], 74.1 µM; in test [6], > 100 µM. Besides, the TGI in test [10] is 45.3 µM; in test [7] it was 33.9 µM.

With `COc1ccc([C@H]2c3cc4c(cc3OC(O)(CO)[C@H]2C(=O)O)OCO4)c(OC)c1` (some centres not stated) (tested in a mixture with another compound), the TGI in test [8], in test [1], in test [2], in test [3], in test [4] and in test [5] was > 100 µM each time. Besides, the TGI in test [9] and in [7] was > 100 µM throughout.

`O=NN1C(c2ccccc2)CCCC1c1ccccc1` (configuration not stated): the TGI in test [8] was > 54.8 µM; in [1] it was > 100 µM; in test [2], > 100 µM; in test [3], > 82.3 µM; in test [4], > 100 µM; in [5], > 100 µM. For the same molecule, the TGI in test [9] and in test [7] was > 100 µM each time.

Take `N#Cc1c(N2CCCC2)nsc1Nc1ccc(F)cc1`: the TGI in [8], in test [1], in test [2], in test [3], in test [5] and in [6] was > 100 µM each time. The TGI in test [9] and in [7] was > 100 µM each time.

On to `O=c1[nH]nc(Cc2ccc(Cl)cc2)n1/N=C/c1c[nH]c2ccccc12`, for which the TGI in test [8], in test [1], in test [2], in [3], in test [4] and in test [6] was > 100 µM in each case. Further, the TGI in test [9] and in [7] was > 100 µM each time.

In the case of `Cn1cnc(SC2=C3C(=O)C=C4S[C@H]5C[C@]42c2c(c(O)c4c6c2=[N+]3CCC=6C=N4)N5)c1CC(N)C(=O)O` (some centres not stated), the TGI in test [8] was 17.1 µM; in [1], 14.6 µM; in [2], 55.7 µM; in test [3], 52.8 µM; in test [4] it was 37.6 µM; in test [5] it was 43.8 µM. In addition, the TGI was > 100 µM in test [9] and 26.1 µM in [7].

For the molecule `O=C(c1ccccc1)c1c(C(F)(F)F)n([O-])c2cc(F)c(F)cc2[n+]1=O`, the TGI is > 100 µM in test [8]; 1.16 µM in test [1]; > 100 µM in test [2]; > 49.5 µM in [3]; 2.4 µM in test [4]; 2.22 µM in test [5]. Moreover, the TGI in test [6] worked out at 2.44 µM; in test [9], 8.53 µM.

In the case of `COc1ccc(C2=C(Cl)c3cc(OC)c(OC)cc3C2)cc1OC`, the TGI was > 100 µM in test [8]; > 100 µM in test [2]; > 100 µM in test [3]; > 100 µM in test [4]; 73.7 µM in test [5].

For `COc1ccc(CCCN2c3ccccc3Sc3ccccc32)cc1`, the TGI in test [8], in [2], in test [3], in test [4], in test [5] and in [9] was > 100 µM throughout. Moreover, the TGI in [7] is > 100 µM.

As for `CS(=O)(=O)OCC1CCCCCCCCCCC12SCCCS2` (configuration not stated), the TGI in test [8], in [1], in test [3], in test [4], in [5] and in test [6] was > 100 µM each time. In addition, the TGI in test [9] and in [7] was > 100 µM in each case.

In the case of `CO[C@]12CC(=O)C3(C(C[C@H]4CC5CC[C@H]6C[C@@H](OC(C)=O)CC[C@]6(OC(C)=O)C5C[C@@]43C)C1)C1C[C@H]3[C@@H]4CC[C@H]5C[C@@H](OC(C)=O)CC[C@]5(OC(C)=O)[C@H]4CC[C@]3(C)C12` (some centres not stated), the TGI in test [8], in [1], in test [2], in test [3], in test [4] and in test [6] was > 100 µM each time. For the same molecule, the TGI in test [9] and in [7] was > 100 µM throughout.
